According to the supplement of paper PMC10307832:

Experiments:
Assay in all cases: relative viability (nuclei count vs DMSO), 5 days (fraction); higher = more cells survive
ABC-1 = system: ABC-1
Procedure, shortened: (§1)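 Five library-drug doses in √10 steps were combined with a fixed anchor-drug dose, or a single drug was given alone, by pin tool to lung cancer cell lines in 1536-well plates the day after seeding. Nuclei were stained and counted after 5 days. Relative viability is the nuclei count in treated wells over that in vehicle wells, taken as the median of duplicate plates.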

CAL-12T = system: CAL-12T
Procedure, shortened: as §1

COR-L 105 = system: COR-L 105
Procedure, shortened: as §1

ChaGo-K-1 = system: ChaGo-K-1
Procedure, shortened: as §1

EMC-BAC-2 = system: EMC-BAC-2
Procedure, shortened: as §1

EPLC-272H = system: EPLC-272H
Procedure, shortened: as §1

HCC-15 = system: HCC-15
Procedure, shortened: as §1

HCC-78 = system: HCC-78
Procedure, shortened: as §1

HOP-62 = system: HOP-62
Procedure, shortened: as §1

LXF-289 = system: LXF-289
Procedure, shortened: as §1

NCI-H1666 = system: NCI-H1666
Procedure, shortened: as §1

NCI-H1755 = system: NCI-H1755
Procedure, shortened: as §1

NCI-H1915 = system: NCI-H1915
Procedure, shortened: as §1

NCI-H1975 = system: NCI-H1975
Procedure, shortened: as §1

NCI-H2023 = system: NCI-H2023
Procedure, shortened: as §1

NCI-H2085 = system: NCI-H2085
Procedure, shortened: as §1

NCI-H2126 = system: NCI-H2126
Procedure, shortened: as §1

NCI-H3122 = system: NCI-H3122
Procedure, shortened: as §1

NCI-H322M = system: NCI-H322M
Procedure, shortened: as §1

NCI-H358 = system: NCI-H358
Procedure, shortened: as §1

NCI-H441 = system: NCI-H441
Procedure, shortened: as §1

UMC-11 = system: UMC-11
Procedure, shortened: as §1

O=c1cc(-c2cccc3c2Sc2ccccc2S3)oc(N2CCOCC2)c1 + COc1cc2c(Oc3ccc(NC(=O)C4(C(=O)Nc5ccc(F)cc5)CC4)cc3F)ccnc2cc1OCCCN1CCOCC1 [Foretinib] (partner 0.25 µM)
relative viability (ABC-1; first compound 0.08 µM): 1.25 | relative viability (ABC-1; first compound 0.253 µM): 1.17 | relative viability (ABC-1; first compound 0.8 µM): 1.2 | relative viability (ABC-1; first compound 2.53 µM): 1.04 | relative viability (ABC-1; first compound 8 µM): 1.31 | relative viability (CAL-12T; first compound 0.08 µM): 0.951 | relative viability (CAL-12T; first compound 0.253 µM): 1.15 | relative viability (CAL-12T; first compound 0.8 µM): 1.19 | relative viability (CAL-12T; first compound 2.53 µM): 1.14 | relative viability (CAL-12T; first compound 8 µM): 1 | relative viability (COR-L 105; first compound 0.08 µM): 1.31 | relative viability (COR-L 105; first compound 0.253 µM): 0.854 | relative viability (COR-L 105; first compound 0.8 µM): 0.8 | relative viability (COR-L 105; first compound 2.53 µM): 1.08 | relative viability (COR-L 105; first compound 8 µM): 1.38 | relative viability (ChaGo-K-1; first compound 0.08 µM): 0.883 | relative viability (ChaGo-K-1; first compound 0.253 µM): 0.98 | relative viability (ChaGo-K-1; first compound 0.8 µM): 1.03 | relative viability (ChaGo-K-1; first compound 2.53 µM): 0.88 | relative viability (ChaGo-K-1; first compound 8 µM): 0.861 | relative viability (EMC-BAC-2; first compound 0.08 µM): 0.998 | relative viability (EMC-BAC-2; first compound 0.253 µM): 0.987 | relative viability (EMC-BAC-2; first compound 0.8 µM): 1 | relative viability (EMC-BAC-2; first compound 2.53 µM): 1.03 | relative viability (EMC-BAC-2; first compound 8 µM): 1.12 | relative viability (EPLC-272H; first compound 0.08 µM): 0.6 | relative viability (EPLC-272H; first compound 0.253 µM): 0.624 | relative viability (EPLC-272H; first compound 0.8 µM): 0.897 | relative viability (EPLC-272H; first compound 2.53 µM): 0.675 | relative viability (EPLC-272H; first compound 8 µM): 0.572 | relative viability (HCC-15; first compound 0.08 µM): 1.01 | relative viability (HCC-15; first compound 0.253 µM): 1.14 | relative viability (HCC-15; first compound 0.8 µM): 1 | relative viability (HCC-15; first compound 2.53 µM): 1.08 | relative viability (HCC-15; first compound 8 µM): 1.11 | relative viability (HCC-78; first compound 0.08 µM): 0.515 | relative viability (HCC-78; first compound 0.253 µM): 0.561 | relative viability (HCC-78; first compound 0.8 µM): 0.519 | relative viability (HCC-78; first compound 2.53 µM): 0.514 | relative viability (HCC-78; first compound 8 µM): 0.498 | relative viability (HOP-62; first compound 0.08 µM): 1.23 | relative viability (HOP-62; first compound 0.253 µM): 1.27 | relative viability (HOP-62; first compound 0.8 µM): 1.25 | relative viability (HOP-62; first compound 2.53 µM): 1.02 | relative viability (HOP-62; first compound 8 µM): 1.14 | relative viability (LXF-289; first compound 0.08 µM): 0.935 | relative viability (LXF-289; first compound 0.253 µM): 1.12 | relative viability (LXF-289; first compound 0.8 µM): 0.974 | relative viability (LXF-289; first compound 2.53 µM): 1.02 | relative viability (LXF-289; first compound 8 µM): 1.1 | relative viability (NCI-H1666; first compound 0.08 µM): 1 | relative viability (NCI-H1666; first compound 0.253 µM): 1.07 | relative viability (NCI-H1666; first compound 0.8 µM): 1.13 | relative viability (NCI-H1666; first compound 2.53 µM): 0.971 | relative viability (NCI-H1666; first compound 8 µM): 0.908 | relative viability (NCI-H1755; first compound 0.08 µM): 0.861 | relative viability (NCI-H1755; first compound 0.253 µM): 0.976 | relative viability (NCI-H1755; first compound 0.8 µM): 0.913 | relative viability (NCI-H1755; first compound 2.53 µM): 0.899 | relative viability (NCI-H1755; first compound 8 µM): 0.943 | relative viability (NCI-H1915; first compound 0.08 µM): 1.21 | relative viability (NCI-H1915; first compound 0.253 µM): 1.2 | relative viability (NCI-H1915; first compound 0.8 µM): 1.08 | relative viability (NCI-H1915; first compound 2.53 µM): 1.06 | relative viability (NCI-H1915; first compound 8 µM): 1.11 | relative viability (NCI-H1975; first compound 0.08 µM): 0.966 | relative viability (NCI-H1975; first compound 0.253 µM): 0.924 | relative viability (NCI-H1975; first compound 0.8 µM): 0.931 | relative viability (NCI-H1975; first compound 2.53 µM): 0.946 | relative viability (NCI-H1975; first compound 8 µM): 1.02 | relative viability (NCI-H2023; first compound 0.08 µM): 0.688 | relative viability (NCI-H2023; first compound 0.253 µM): 0.889 | relative viability (NCI-H2023; first compound 0.8 µM): 0.965 | relative viability (NCI-H2023; first compound 8 µM): 0.861 | relative viability (NCI-H2085; first compound 0.08 µM): 0.907 | relative viability (NCI-H2085; first compound 0.253 µM): 1.21 | relative viability (NCI-H2085; first compound 0.8 µM): 0.975 | relative viability (NCI-H2085; first compound 2.53 µM): 0.771 | relative viability (NCI-H2085; first compound 8 µM): 0.845 | relative viability (NCI-H2126; first compound 0.08 µM): 1.22 | relative viability (NCI-H2126; first compound 0.253 µM): 1.39 | relative viability (NCI-H2126; first compound 0.8 µM): 1.02 | relative viability (NCI-H2126; first compound 2.53 µM): 1.03 | relative viability (NCI-H2126; first compound 8 µM): 0.994 | relative viability (NCI-H3122; first compound 0.08 µM): 0.789 | relative viability (NCI-H3122; first compound 0.253 µM): 1.01 | relative viability (NCI-H3122; first compound 0.8 µM): 1.02 | relative viability (NCI-H3122; first compound 2.53 µM): 0.986 | relative viability (NCI-H3122; first compound 8 µM): 1.01 | relative viability (NCI-H322M; first compound 0.08 µM): 0.896 | relative viability (NCI-H322M; first compound 0.253 µM): 1 | relative viability (NCI-H322M; first compound 0.8 µM): 0.885 | relative viability (NCI-H322M; first compound 2.53 µM): 0.858 | relative viability (NCI-H322M; first compound 8 µM): 0.972 | relative viability (NCI-H358; first compound 0.08 µM): 0.622 | relative viability (NCI-H358; first compound 0.253 µM): 0.753 | relative viability (NCI-H358; first compound 0.8 µM): 0.635 | relative viability (NCI-H358; first compound 2.53 µM): 0.825 | relative viability (NCI-H358; first compound 8 µM): 0.797 | relative viability (NCI-H441; first compound 0.08 µM): 0.512 | relative viability (NCI-H441; first compound 0.253 µM): 1.09 | relative viability (NCI-H441; first compound 0.8 µM): 1.35 | relative viability (NCI-H441; first compound 2.53 µM): 0.882 | relative viability (NCI-H441; first compound 8 µM): 0.98 | relative viability (UMC-11; first compound 0.08 µM): 1.04 | relative viability (UMC-11; first compound 0.253 µM): 1.03 | relative viability (UMC-11; first compound 0.8 µM): 1.19 | relative viability (UMC-11; first compound 2.53 µM): 1.03 | relative viability (UMC-11; first compound 8 µM): 1.31
